In patent US9701681B2, “Fused ring heteroaryl compounds and their use as Trk inhibitors” (CMG Pharmaceutical Co., Ltd., priority 2014, dated 2017) one finds IC50 data, which are given here for 17 compounds.

One test addresses T1, TRK A, B & C kinase.
T1 construct: fused on or other part: Carna's Trk kinases are usually GST-tagged cytoplasmic domains
The experiment in a line: TRK A, B & C kinase assay (ADP-Glo / HTRF KinEASE-TK). Type of test: biochemical. The conditions noted are these: ADP-Glo or HTRF KinEASE-TK kit, isoform not specified, read-out: IC50 (nM) Enzymatic assay. As to the method: ADP-Glo assay kit was purchased from Promega. poly (Glu, Tyr), Magnesium sulfate, Bovine serum albumin (BSA) and dimethylsulfoxide(DMSO) were purchased from Sigma-Aldrich. Tris-HCl buffer was purchased from BD Gentest. HTRF KinEASE-TK kit was purchased from cisbio. TRK A, B & C kinase was purchased from Carna bioscience.
Kinase assay was performed for Chemical Compounds 1-61 using two methods using luminescent ADP-Glo assay kit (Promega) and HTRF KinEASE-TK assay kit (cisbio). The luminescent ADP-Glo assay kit (Promega) measures ADP formed from a kinase reaction. ADP converted into ATP, which is then converted into light by Ultra-Glo luciferase. The HTRF KinEASE-TK assay kit (cisbio) measures tyrosine kinase activities using one substrate and a universal detection system.
ADP-Glo Assay Kit (Promega)
The protein kinase assay was performed for Chemical Compounds 1-61 at […] concentrations are 0.4 ng/ul of TrKA, 0.5 ng/ul of TrKB and 3 ng/ul of TrKC, respectively), 5 μL of 1 ug/ul stock solution of poly(glu, Tyr), 5 μL of compounds or assay buffer, 5 μL of ATP (125 μM stock solution).
The assay was started by incubating the reaction mixture in a 96-well plate at 30° C. for 1 hr. After the incubation, the assay was terminated by the addition of 25 […] Detection Reagent was added, and the 96-well plate was shaken and then incubated for additional 30 min at ambient temperature. The 96-well reaction plate was then read on an Enspire plate reader. The IC50 values were derived through a curve fitting using SigmaPlot.
HTRF KinEASE-TK Assay Kit (Cisbio)
The HTRF KinEASE-TK assay was performed for Chemical Compounds 1-61 in 384-well low volume microplate (Greiner). The HTRF KinEASE-TK assay format involves the two steps. The first step is kinase reaction step. This kinase reaction step was performed at RT (room temperature) in final volume of 10 ul according to the following assay reaction recipe: 10 ul of kinase mixture (Kinase (2 ul)+ATP (2 ul)+Substrate (2 ul)+Compound (4 ul)). Kinase final concentrations were 0.3 ng/ul of TRKA, 0.1 ng/ul of TRKB, 0.03 ng/ul of TRKC, respectively. ATP final concentrations were 14.7 uM (TRKA), 4.77 uM (TRKB), 25.6 uM (TRKC) respectively. TK-substrate final concentration was 0.3 ng/ul. The mixtures exposed to Dose response concentration (DRC) compound from 0 to 100 nM for 40 min. During the kinase reaction step, the kinase reaction was started by the addition of ATP. Kinase phosphorylates the substrate.
The second is detection step. 10 ul of detection reagents (5 ul Sa-XL 665 in EDTA+5 ul TK Antibody-Eu in EDTA) was added to kinase mixture. This step was performed at room temperature for 1 hr. The detection reagent detects phosphorylated substrates.
Finally 384-well reaction plate was then read on FlexStation 3 machine. The fluorescence was measured at 620 nm (Cryptate) and 665 nm (XL665). A ratio is calculated ([…]/620)×10^4 for each well. The IC50 value was derived through a curve fitting using GraphPad Prism. Table 1 below includes the results of the assays.
In the case of `Fc1ccc(F)c([C@H]2CCCN2c2ccn3ncc(-c4nnc(N5CCNCC5)o4)c3n2)c1` [Chemical Compound 18, (R)-2-(5-(2-(2,5-difluorophenyl)pyrrolidin-1-yl)pyrazolo[1,5-a]pyrimidin-3-yl)-5-(piperazin-1-yl)-1,3,4-oxadiazole], the IC50 is above 100 nM.
On the same count and under the same terms, the value for `Fc1ccc(F)c([C@H]2CCCN2c2ccn3ncc(-c4nnc(-c5cn[nH]c5)s4)c3n2)c1` [Chemical Compound 19, (R)-2-(5-(2-(2,5-difluorophenyl)pyrrolidin-1-yl)pyrazolo[1,5-a]pyrimidin-3-yl)-5-(1H-pyrazol-4-yl)-1,3,4-thiadiazole] was below 10 nM.
On the same count and under the same terms, the value for `Fc1ccc(F)c([C@H]2CCCN2c2ccn3ncc(-c4nnc(-c5cc[nH]n5)s4)c3n2)c1` [Chemical Compound 20, (R)-2-(5-(2-(2,5-difluorophenyl)pyrrolidin-1-yl)pyrazolo[1,5-a]pyrimidin-3-yl)-5-(1H-pyrazol-3-yl)-1,3,4-thiadiazole] was above 100 nM; that for `O=C(Nc1nnc(-c2cnn3ccc(N4CCC[C@@H]4c4cc(F)ccc4F)nc23)s1)c1ccccc1` [Chemical Compound 21, (R)—N-(5-(5-(2-(2,5-difluorophenyl)pyrrolidin-1-yl)pyrazolo[1,5-a]pyrimidin-3-yl)-1,3,4-thiadiazol-2-yl)benzamide] was above 100 nM; that for `Fc1ccc(F)c([C@H]2CCCN2c2ccn3ncc(-c4nnc(N5CCNCC5)s4)c3n2)c1` [Chemical Compound 22, (R)-2-(5-(2-(2,5-difluorophenyl)pyrrolidin-1-yl)pyrazolo[1,5-a]pyrimidin-3-yl)-5-(piperazin-1-yl)-1,3,4-thiadiazole] was below 10 nM.
Regarding `Fc1ccc(F)c([C@H]2CCCN2c2ccn3ncc(-c4nnc(N5CCCNCC5)s4)c3n2)c1` [Chemical Compound 23, (R)-2-(1,4-diazepan-1-yl)-5-(5-(2-(2,5-difluorophenyl)pyrrolidin-1-yl)pyrazolo[1,5-a]pyrimidin-3-yl)-1,3,4-thiadiazole], the IC50 was below 10 nM.
Still for that read-out and setting: under `Fc1ccc(F)c([C@H]2CCCN2c2ccn3ncc(-c4nnc(C5CCNCC5)o4)c3n2)c1` [Chemical Compound 24, (R)-2-(5-(2-(2,5-difluorophenyl)pyrrolidin-1-yl)pyrazolo[1,5-a]pyrimidin-3-yl)-5-(piperidin-4-yl)-1,3,4-oxadiazole] stands below 10 nM; under `Fc1ccc(F)c([C@H]2CCCN2c2ccn3ncc(-c4cn(C5CCNCC5)nn4)c3n2)c1` [Chemical Compound 33, (R)-5-(2-(2,5-difluorophenyl)pyrrolidin-1-yl)-3-(1-(piperidin-4-yl)-1H-1,2,3-triazol-4-yl)pyrazolo[1,5-a]pyrimidine], below 10 nM; under `Fc1ccc(F)c([C@H]2CCCN2c2ccn3ncc(-c4cn(C5CCCNC5)nn4)c3n2)c1` (stereo partly drawn) [Chemical Compound 34, 5-((R)-2-(2,5-difluorophenyl)pyrrolidin-1-yl)-3-(1-(piperidin-3-yl)-1H-1,2,3-triazol-4-yl)pyrazolo[1,5-a]pyrimidine], below 10 nM.
Same read-out and setting: the value for `Fc1ccc(F)c([C@H]2CCCN2c2ccn3ncc(-c4cn(C5CCNC5)nn4)c3n2)c1` (stereo partly drawn) [Chemical Compound 35, 5-((R)-2-(2,5-difluorophenyl)pyrrolidin-1-yl)-3-(1-(pyrrolidin-3-yl)-1H-1,2,3-triazol-4-yl)pyrazolo[1,5-a]pyrimidine] was below 10 nM.
The same measure, in the same setting: under `O=C(Cn1cc(-c2cnn3ccc(N4CCC[C@@H]4c4cc(F)ccc4F)nc23)nn1)N1CCNCC1` [Chemical Compound 37, (R)-2-(4-(5-(2-(2,5-difluorophenyl)pyrrolidin-1-yl)pyrazolo[1,5-a]pyrimidin-3-yl)-1H-1,2,3-triazol-1-yl)-1-(piperazin-1-yl)ethan-1-one] stands below 10 nM; under `O=C1CN(C(=O)/C=C/c2cnn3ccc(N4CCC[C@@H]4c4cc(F)ccc4F)nc23)CCN1` [Chemical Compound 51, (R,E)-4-(3-(5-(2-(2,5-difluorophenyl)pyrrolidin-1-yl)pyrazolo[1,5-a]pyrimidin-3-yl)acryloyl)piperazin-2-one], below 10 nM.
Take `CC(C)(O)C1CN(C(=O)/C=C/c2cnn3ccc(N4CCC[C@@H]4c4cc(F)ccc4F)nc23)CCN1` (stereo partly drawn) [Chemical Compound 52, (E)-3-(5-((R)-2-(2,5-difluorophenyl)pyrrolidin-1-yl)pyrazolo[1,5-a]pyrimidin-3-yl)-1-(3-(2-hydroxypropan-2-yl)piperazin-1-yl)prop-2-en-1-one]: the IC50 is below 10 nM.
Same read-out and setting: the value for `CN1CCN(C(=O)/C=C/c2cnn3ccc(N4CCC[C@@H]4c4cc(F)ccc4F)nc23)CC1` [Chemical Compound 53, (R,E)-3-(5-(2-(2,5-difluorophenyl)pyrrolidin-1-yl)pyrazolo[1,5-a]pyrimidin-3-yl)-1-(4-methylpiperazin-1-yl)prop-2-en-1-one] was below 10 nM; that for `CC(C)N1CCN(C(=O)/C=C/c2cnn3ccc(N4CCC[C@@H]4c4cc(F)ccc4F)nc23)CC1` [Chemical Compound 55, (R,E)-3-(5-(2-(2,5-difluorophenyl)pyrrolidin-1-yl)pyrazolo[1,5-a]pyrimidin-3-yl)-1-(4-isopropylpiperazin-1-yl)prop-2-en-1-one] was below 10 nM; that for `O=C(/C=C/c1cnn2ccc(N3CCC[C@@H]3c3cc(F)ccc3F)nc12)N1CCCNCC1` [Chemical Compound 56, (R,E)-1-(1,4-diazepan-1-yl)-3-(5-(2-(2,5-difluorophenyl)pyrrolidin-1-yl)pyrazolo[1,5-a]pyrimidin-3-yl)prop-2-en-1-one] was above 100 nM.
Same read-out and setting: the value for “(R,E)-3-(5-(2-(2,5-difluorophenyl)pyrrolidin-1-yl)pyrazolo[1,5-a]pyrimidin-3-yl)-1-(4-ethylpiperazin-1-yl)prop-2-en-1-one [Chemical Compound 54]” was above 100 nM.

In a further test the test system is KM12-luc cells. The test can be described thus: Cell proliferation assay (KM12). The conditions noted are these: 72 hours exposure, read-out: IC50 (nM) Cell-based assay (KM12). Here is the method: Doxorubicin was purchased from Sigma Aldrich (D1515). All compounds were diluted in DMSO (Sigma Aldrich, D2650). AlamarBlue® cell viability reagent was purchased from Thermo Scientific (88952). CellTiter 96® AQueous One Solution Cell proliferation assay was purchased from Promega. KM12-luc cells were obtained from JCRB (National Institute of Health Sciences, Tokyo, Japan). They were maintained in DMEM medium (GIB-11965-118) supplemented with 10% fetal bovine serum (Gibco, 16000-044) and MEM Non-Essential Amino Acids Solution (Thermo Scientific, 11140-050). TF-1 cells were obtained from ATCC. They were maintained in RPMI medium (GIB-A10491) supplemented with 10% fetal bovine serum (Gibco, 16000-044), GM-CSF (Thermo Scientific, 11140-050), and β-NGF (R&D systems). Trypsin/EDTA was purchased from Gibco (GIB-25300-054, 0.05%). 96-well plates were purchased from Corning Inc.
The proliferation assay was performed for Chemical Compounds 1-61 s in media supplemented with 10% FBS, using AlamarBlue® cell viability reagent or CellTiter 96® AQueous One Solution Cell proliferation assay kit. Cells were cultured in humidified 37° C. incubator with 5% CO2. To evaluate the antiproliferation activity of compounds, TF-1 cells were adjusted to GM-CSF free media (RPMI, 10% FBS, and 1% penicillin-streptomycin) for 16 hr and were seeded in 96-well plates at 30,000 cells/well with medium (RPMI, 10% FBS, 1% penicillin-streptomycin and 10 ng/ml human β-NGF). KM12-luc were seeded at 10,000 cells per well into 96-well plates. After overnight incubation, serial dilutions of compounds were added to triplicate wells, and cells were exposed for 72 hours. The final concentration of DMSO was adjusted to 0.5% in media. Quantitation of cell growth was assessed using two kinds of reagent. 20 ul of AlamarBlue® reagent in an amount equal to 10% of the culture volume was added to each well and were incubated in humidified 37° C. incubator with 5% CO2 for 2 hr. Otherwise, 20 ul of CellTiter 96® reagent was added to each well and were incubated in the same conditions as previously described. Data were plotted, and GI50 values were calculated using GraphPad software. Table 1 below includes the results of the assays.
Consider `CN1CCN(C(=O)/C=C/c2cnn3ccc(N4CCC[C@@H]4c4cc(F)ccc4F)nc23)CC1` [Chemical Compound 53, (R,E)-3-(5-(2-(2,5-difluorophenyl)pyrrolidin-1-yl)pyrazolo[1,5-a]pyrimidin-3-yl)-1-(4-methylpiperazin-1-yl)prop-2-en-1-one], for which the half-maximal inhibitory concentration (IC50) is below 100 nM.
For `CC(C)N1CCN(C(=O)/C=C/c2cnn3ccc(N4CCC[C@@H]4c4cc(F)ccc4F)nc23)CC1` [Chemical Compound 55, (R,E)-3-(5-(2-(2,5-difluorophenyl)pyrrolidin-1-yl)pyrazolo[1,5-a]pyrimidin-3-yl)-1-(4-isopropylpiperazin-1-yl)prop-2-en-1-one], the IC50 was below 100 nM.
